Legend:
[1] = test system: hepatic P450 monoxygenase activities; test: O-dealkylation of 7-methoxyresorufin in hepatic microsomes; conditions: CPRlox/- +CreALB mice, nmol metabolite per nmol P450
[2] = test system: control, CPR heterozygous null and hepatic CPR null mice; test: Pentobarbital sleep time (regain of righting reflex); format: in vivo, mouse; conditions: 20 mg/kg i.p.
Experimental: c Time taken for regain of righting reflex in adult male mice of various genotypes following treatment with sodium pentobarbital at 20 mg/kg i.p. (n=3). Values are expressed as mean±SEM.
Pentobarbital sleep time—adult male CPR^lox/lox+Cre^ALB, CPR^lox/−+Cre^ALB, CPR^lox/− and CPR^+/++Cre^ALB mice (n=3) were given a single intraperitoneal (i.p.) dose of sodium pentobarbitone (Sagatal) at 20 mg/kg body weight. The time taken for the mice to lose, and subsequently to regain, their righting reflex was measured.
Cytochrome P450s involved in drug metabolism are distributed throughout the tissues of the body; it has been estimated that a significant proportion of drug metabolism (up to 30%) may be extra-hepatic. In order to test the level of extra-hepatic metabolism as well as the in vivo effects of hepatic CPR nulls on drug disposition, we measured barbiturate-induced sleeping times. This method has been used since the 1960s as an indicator of drug metabolising activity.

[3] = test system: hepatic P450 monoxygenase activities; test: Microsomal hydroxylation of testosterone in liver microsomes; conditions: liver microsomes of hepatic CPR nulls of both sexes

COc1ccc2nc3ccc(=O)cc-3oc2c1 [7-methoxyresortifin]
reduction of O-dealkylation ([1]; females): 98.5% | reduction of O-dealkylation ([1]; males): 99.5%

CCCC(C)C1(CC)C(=O)NC(=O)NC1=O (stereo not drawn) [pentobarbitone]
average sleeping period ([2]; CPR heterozygous null mice (CPR+/-)): approximately 50 minutes | induction of sleep ([2]; control mice): failed to induce sleep | sleeping period ([2]; mice lacking hepatic CPR (CPRlox/- +CreALB or CPRlox/lox +CreALB)): > 2 h

C[C@]12CC[C@H]3[C@@H](CCC4=CC(=O)CC[C@@]43C)[C@@H]1CC[C@@H]2O [testosterone]
16-hydroxylation of testosterone [3]: undetectable

Source: patent US7700822B2, “Modulation of cytochrome P450 reductase activity” (Cancer Research Technology Limited, priority 2002, dated 2010)
